By inhibition is commonly meant how much of the control response was suppressed.

13 compounds from ChEMBL document CHEMBL3046800, “Tricyclic cyanoguanidines: synthesis, site of action and insecticidal activity of a novel class of reversible acetylcholinesterase inhibitors” (2002) can be followed below.

Activity calls are given as the source filed them. The rule behind the calls is not given here. A value given as a limit tells only on which side of the number the result lay.

In assay [1] the target is Acetylcholinesterase (Leptinotarsa decemlineata) (UniProt Q27677). Kind of assay: Reversible inhibition of Diabrotica undecimpunctata (Southern corn rootworm) acetylcholinesterase using acetylcholine iodine as substrate at 10 uM incubated for 30 min prior to substrate addition by size exclusion chromatrography method. (In gel filtration, larger molecules generally elute earlier.)

Assay [2] shares this target. Kind of assay: Reversible inhibition of Diabrotica undecimpunctata (Southern corn rootworm) acetylcholinesterase using acetylcholine iodine as substrate at 2 uM measured up to 120 min by DTNB-based colorimetric analysis.
In assay [3] the test system is Peregrinus maidis. Kind of assay: Insecticidal activity against Peregrinus maidis (corn hopper) infested compound-pretreated corn seed measured 6 days post-infestation. It is filed as functional.
Assay [4] has as its system Nephotettix cincticeps. Kind of assay: Insecticidal activity against Nephotettix cincticeps (green rice leafhopper) infested in compound-pretreated rice seedling measured 6 days post-infestation. It is filed as functional.
Assay [5] relates to Nilaparvata lugens. Kind of assay: Insecticidal activity against Nilaparvata lugens (brown planthopper) infested in compound-pretreated rice seedling measured 6 days post-infestation. Format: functional.
The target in assay [6] is Ace-orthologous acetylcholinesterase (Nephotettix cincticeps) (UniProt Q9NJH6). In words: Reversible inhibition of Nephotettix cincticeps (green rice leafhopper) acetylcholinesterase using acetylcholine iodine as substrate at 2 uM measured up to 120 min by DTNB-based colorimetric analysis.
In assay [7] the target is Acetylcholinesterase (Leptinotarsa decemlineata) (UniProt Q27677). Kind of assay: Inhibition of Diabrotica undecimpunctata (Southern corn rootworm) acetylcholinesterase using acetylcholine iodine as substrate at 300 nM measured after 30 min by DTNB-based colorimetric analysis.
The target is the same in assay [8]. Kind of assay: Irreversible inhibition of Diabrotica undecimpunctata (Southern corn rootworm) acetylcholinesterase using acetylcholine iodine as substrate assessed as activity remaining at 1 uM incubated for 30 min prior to substrate addition by size exclusion chromatrography method.
For assay [9] the target is unchanged. Kind of assay: Irreversible inhibition of Diabrotica undecimpunctata (Southern corn rootworm) acetylcholinesterase using acetylcholine iodine as substrate at 300 nM measured after 120 min by DTNB-based colorimetric analysis.

Chain of Acetylcholinesterase (Leptinotarsa decemlineata) (Q27677 whole entry): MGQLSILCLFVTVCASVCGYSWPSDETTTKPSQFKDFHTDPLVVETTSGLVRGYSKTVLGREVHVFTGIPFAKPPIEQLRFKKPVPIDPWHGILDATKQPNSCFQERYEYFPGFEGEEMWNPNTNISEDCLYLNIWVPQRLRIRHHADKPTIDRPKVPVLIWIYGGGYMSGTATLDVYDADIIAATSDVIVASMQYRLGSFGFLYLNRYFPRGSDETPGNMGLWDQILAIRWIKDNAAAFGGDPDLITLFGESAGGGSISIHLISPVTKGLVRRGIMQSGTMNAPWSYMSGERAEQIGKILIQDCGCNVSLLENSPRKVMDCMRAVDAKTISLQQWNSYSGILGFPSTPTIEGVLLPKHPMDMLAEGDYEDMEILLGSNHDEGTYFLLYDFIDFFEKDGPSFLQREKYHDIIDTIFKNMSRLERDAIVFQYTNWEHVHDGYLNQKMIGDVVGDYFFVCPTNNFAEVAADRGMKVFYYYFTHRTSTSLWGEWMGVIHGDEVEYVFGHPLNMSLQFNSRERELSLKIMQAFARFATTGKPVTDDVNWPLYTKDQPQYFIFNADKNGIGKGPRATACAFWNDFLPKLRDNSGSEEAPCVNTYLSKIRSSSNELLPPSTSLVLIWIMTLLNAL
Chain of Ace-orthologous acetylcholinesterase (Nephotettix cincticeps) (Q9NJH6 20-677 limits assumed): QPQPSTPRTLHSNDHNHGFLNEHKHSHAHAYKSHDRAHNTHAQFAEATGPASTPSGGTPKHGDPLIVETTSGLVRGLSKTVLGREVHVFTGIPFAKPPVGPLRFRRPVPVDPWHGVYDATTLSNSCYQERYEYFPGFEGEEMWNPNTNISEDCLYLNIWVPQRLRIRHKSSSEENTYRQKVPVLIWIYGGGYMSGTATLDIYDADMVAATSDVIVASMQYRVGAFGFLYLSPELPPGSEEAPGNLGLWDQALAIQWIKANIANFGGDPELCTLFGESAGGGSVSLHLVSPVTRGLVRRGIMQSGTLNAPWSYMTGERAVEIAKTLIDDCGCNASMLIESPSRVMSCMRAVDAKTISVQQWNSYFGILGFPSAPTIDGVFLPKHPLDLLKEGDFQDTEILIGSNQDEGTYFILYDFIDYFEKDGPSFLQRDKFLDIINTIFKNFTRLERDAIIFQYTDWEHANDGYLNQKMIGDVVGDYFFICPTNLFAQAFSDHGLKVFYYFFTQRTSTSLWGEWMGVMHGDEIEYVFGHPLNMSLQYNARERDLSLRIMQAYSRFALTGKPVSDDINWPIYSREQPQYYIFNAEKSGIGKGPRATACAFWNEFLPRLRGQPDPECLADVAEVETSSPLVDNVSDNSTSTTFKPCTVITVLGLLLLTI

Regarding `CC12CC(N/C(=N/C#N)N1)c1ccccc1O2` (centres undefined), in assay [1], the inhibition result was “Active”. In assay [2], this compound returned an inhibition of 50%. In addition, the LC80 in assay [3] was greater than 250 ppm; in assay [4] it was greater than 100 ppm; in assay [5] it was less than 10 ppm. Further, the inhibition entry in assay [6] is “inactive”.
Regarding `CCOP(=O)(OCC)Oc1ccc([N+](=O)[O-])cc1` [PARAOXON], the inhibition was found to be 50% in assay [7] and 100% in assay [9]. Also, the Activity in assay [8] is less than 20%. Moreover, the LC80 in [4] was greater than 100 ppm; in [5], less than 10 ppm.
Regarding `CC12CC(N/C(=N/C#N)N1)c1cc(Br)cc(Br)c1O2` (centres undefined), the LC80 was less than 10 ppm in [3], greater than 100 ppm in assay [4] and greater than 100 ppm in assay [5].
Regarding `CN1/C(=N/C#N)NC2(C)CC1c1ccccc1O2` (centres undefined), the LC80 in assay [3] was greater than 250 ppm; in assay [4], less than 100 ppm; in assay [5], less than 10 ppm.
The like results for `CC12CC(N/C(=N/C#N)N1)c1cc(OC(F)(F)F)ccc1O2` (centres undefined) were, in that order, greater than 250 ppm, greater than 100 ppm and greater than 100 ppm.
For `CC12CC(N/C(=N/C#N)N1)c1cc(C(C)(C)C)cc(C(C)(C)C)c1O2` (centres undefined), in that order: greater than 250 ppm, greater than 100 ppm and greater than 100 ppm.
For `N#C/N=C1\NC2CC(N1)c1ccccc1O2` (centres undefined), in that order: less than 50 ppm, greater than 100 ppm and less than 100 ppm.
Turning to `CN1/C(=N/C#N)N(C)C2(C)CC1c1ccccc1O2` (centres undefined), the figures for the LC80 in assay [3], in assay [4] and in assay [5] were greater than 250 ppm, greater than 100 ppm and less than 10 ppm, respectively.
The like results for `CC(C)C(=O)N1/C(=N/C#N)NC2(C)CC1c1ccccc1O2` (centres undefined) were, in that order, greater than 250 ppm, greater than 100 ppm and less than 10 ppm.
For `CC12CC(N/C(=N/C#N)N1)c1cc([N+](=O)[O-])ccc1O2` (centres undefined), in that order: less than 250 ppm, less than 10 ppm and greater than 100 ppm.
For `C#CCN1/C(=N/C#N)NC2(C)CC1c1ccccc1O2` (centres undefined), in that order: greater than 250 ppm, less than 10 ppm and less than 10 ppm.
Consider `Cc1ccc2c(c1)C1CC(C)(N/C(=N\C#N)N1)O2` (centres undefined), for which the LC80 is given as greater than 250 ppm in [3], less than 100 ppm in assay [4] and greater than 100 ppm in assay [5].
The like results for `CC12CC(N/C(=N/C#N)N1)c1cc(N)ccc1O2` (centres undefined) were, in that order, greater than 250 ppm, less than 10 ppm and greater than 100 ppm.
